From ChEMBL document CHEMBL1909046, “DrugMatrix in vitro pharmacology data”

Tests used:
[1] = target: T1, B2 bradykinin receptor (Homo sapiens, UniProt P30411); assay type: cell membranes, Membrane; conditions: chem-1; also: in other assays of this panel Not Active means under 50% inhibition at 10 µM
T1 sequence (P30411 whole entry): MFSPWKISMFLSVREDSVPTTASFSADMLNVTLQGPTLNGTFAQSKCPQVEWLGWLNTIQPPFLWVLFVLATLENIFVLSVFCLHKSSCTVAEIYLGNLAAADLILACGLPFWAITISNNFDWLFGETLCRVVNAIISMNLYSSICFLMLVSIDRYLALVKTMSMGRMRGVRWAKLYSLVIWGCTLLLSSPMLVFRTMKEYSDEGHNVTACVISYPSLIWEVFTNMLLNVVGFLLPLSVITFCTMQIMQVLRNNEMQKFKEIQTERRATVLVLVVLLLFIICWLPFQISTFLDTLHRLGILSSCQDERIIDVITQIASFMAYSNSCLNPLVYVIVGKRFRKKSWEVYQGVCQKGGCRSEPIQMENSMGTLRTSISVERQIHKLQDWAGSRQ

[2] = target: Cannabinoid receptor 1 (Homo sapiens, UniProt P21554); assay type: cell membranes, Chem-1, Membrane; conditions: chem-1; also: in other assays of this panel Not Active means under 50% inhibition at 10 µM
Sequence of Cannabinoid receptor 1 (P21554 whole entry): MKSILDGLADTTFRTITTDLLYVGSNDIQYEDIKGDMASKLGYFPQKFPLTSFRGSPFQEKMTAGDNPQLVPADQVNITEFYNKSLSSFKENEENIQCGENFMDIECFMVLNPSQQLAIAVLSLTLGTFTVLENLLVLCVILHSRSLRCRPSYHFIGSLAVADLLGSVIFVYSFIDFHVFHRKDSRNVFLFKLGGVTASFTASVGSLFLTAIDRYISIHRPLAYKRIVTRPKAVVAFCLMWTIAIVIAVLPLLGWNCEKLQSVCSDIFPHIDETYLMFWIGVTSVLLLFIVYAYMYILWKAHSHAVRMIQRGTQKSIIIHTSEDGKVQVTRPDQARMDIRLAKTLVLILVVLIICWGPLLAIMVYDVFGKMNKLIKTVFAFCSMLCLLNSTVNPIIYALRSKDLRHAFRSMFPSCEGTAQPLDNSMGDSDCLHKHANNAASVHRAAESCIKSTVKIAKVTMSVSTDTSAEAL

[3] = DRUGMATRIX: Leukotriene, BLT (LTB4) radioligand binding (ligand: [3H]LTB4); assay type: cell membranes, Membrane; conditions: u-937, Not Active = under 50% inhibition at 10 µM
[4] = target: T2, Neuropeptide Y receptor type 1 (Homo sapiens, UniProt P25929); assay type: cell membranes, Membrane; conditions: sk-n-mc; also: in other assays of this panel Not Active means under 50% inhibition at 10 µM
T2 sequence (P25929 whole entry): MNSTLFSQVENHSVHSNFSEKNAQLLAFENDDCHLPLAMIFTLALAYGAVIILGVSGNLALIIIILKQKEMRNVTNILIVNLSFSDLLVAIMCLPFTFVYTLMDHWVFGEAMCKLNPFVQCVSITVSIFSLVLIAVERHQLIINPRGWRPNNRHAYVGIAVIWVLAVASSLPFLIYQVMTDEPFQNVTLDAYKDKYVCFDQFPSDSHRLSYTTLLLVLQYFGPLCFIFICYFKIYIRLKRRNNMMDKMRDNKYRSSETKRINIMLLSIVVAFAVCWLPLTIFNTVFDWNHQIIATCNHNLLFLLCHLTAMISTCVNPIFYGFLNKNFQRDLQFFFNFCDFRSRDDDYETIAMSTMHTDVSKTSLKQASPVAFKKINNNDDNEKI

[5] = DRUGMATRIX: Phosphodiesterase PDE3 enzyme inhibition (substrate: [3H]cAMP + cAMP); assay type: tissue-based, Homo sapiens; conditions: platelet, Not Active = under 50% inhibition at 10 µM
[6] = DRUGMATRIX: Phosphodiesterase PDE4 enzyme inhibition (substrate: [3H]cAMP + cAMP); conditions: u-937, Not Active = under 50% inhibition at 10 µM
[7] = target: cGMP-specific 3',5'-cyclic phosphodiesterase (Homo sapiens, UniProt O76074); test: DRUGMATRIX: Phosphodiesterase PDE5 enzyme inhibition (substrate: [3H]cGMP + cGMP); assay type: tissue-based, Platelet; conditions: Not Active = under 50% inhibition at 10 µM

SMILES | IC50 [1] | IC50 [2] | IC50 [3] | Ki [3] | IC50 [4] | IC50 [5] | Ki [5] | IC50 [6] | Ki [6] | IC50 ([7]; platelet) | IC50 ([5]; read-out: IC50) [µM] | IC50 ([6]; read-out: IC50) [µM] | IC50 ([7]; read-out: IC50) [µM] | IC50 ([3]; read-out: IC50) [µM] | Ki ([3]; read-out: Ki) [µM]
CC(N)C12CC3CC(CC(C3)C1)C2 (centres undefined) [RIMANTADINE] | Not Active | Not Active | Not Active | Not Active | Not Active | Not Active | Not Active | Not Active | Not Active | Not Active |  |  |  |  | 
CS(=O)(=O)c1ccc(C2=C(c3ccccc3)C(=O)OC2)cc1 [ROFECOXIB] | Not Active | Not Active | Not Active | Not Active | Not Active | Not Active | Not Active | Not Active | Not Active | Not Active |  |  |  |  | 
CCOc1cc(N)c(Cl)cc1C(=O)NCC1CN(Cc2ccc(F)cc2)CCO1 (centres undefined) [MOSAPRIDE] | Not Active | Not Active | Not Active | Not Active | Not Active | Not Active | Not Active | Not Active | Not Active | Not Active |  |  |  |  | 
Cc1ccnc(NS(=O)(=O)c2ccc(N)cc2)n1 [SULFAMERAZINE] | Not Active | Not Active | Not Active | Not Active | Not Active | Not Active | Not Active | Not Active | Not Active | Not Active |  |  |  |  | 
OC[C@@H](O)[C@@H](O)[C@H](O)[C@H](O)CO [MANNITOL] | Not Active | Not Active | Not Active | Not Active | Not Active | Not Active | Not Active | Not Active | Not Active | Not Active |  |  |  |  | 
Oc1ccc(/C=C/c2cc(O)cc(O)c2)cc1 [RESVERATROL] | Not Active | Not Active | Not Active | Not Active | Not Active | Not Active | Not Active | Not Active | Not Active | Not Active |  |  |  |  | 
CC1=C(/C=C/C(C)=C/C=C/C(C)=C/C(=O)O)C(C)(C)CCC1 [TRETINOIN] | Not Active | Not Active | Not Active | Not Active | Not Active | Not Active | Not Active | Not Active | Not Active | Not Active |  |  |  |  | 
C=CCc1ccc2c(c1)OCO2 [SAFROLE] | Not Active | Not Active | Not Active | Not Active | Not Active | Not Active | Not Active | Not Active | Not Active | Not Active |  |  |  |  | 
CCN(CC)N=O [N-NITROSODIETHYLAMINE] | Not Active | Not Active | Not Active | Not Active | Not Active | Not Active | Not Active | Not Active | Not Active | Not Active |  |  |  |  | 
CCN1CCCC1CNC(=O)c1cc(S(N)(=O)=O)ccc1OC (centres undefined) [SULPIRIDE] | Not Active | Not Active | Not Active | Not Active | Not Active | Not Active | Not Active | Not Active | Not Active | Not Active |  |  |  |  | 
O=C1CC[C@@]2(O)[C@H]3Cc4ccc(O)c5c4[C@@]2(CCN3CC2CC2)[C@H]1O5 [NALTREXONE] | Not Active | Not Active | Not Active | Not Active | Not Active | Not Active | Not Active | Not Active | Not Active | Not Active |  |  |  |  | 
C[N+]1(C)[C@@H]2C[C@@H](OC(=O)[C@H](CO)c3ccccc3)C[C@H]1[C@@H]1O[C@@H]12.[Br-] [METHSCOPOLAMINE BROMIDE] | Not Active | Not Active | Not Active | Not Active | Not Active | Not Active | Not Active | Not Active | Not Active | Not Active |  |  |  |  | 
CCN(CC)CCNC(=O)c1cc(Cl)c(N)cc1OC [METOCLOPRAMIDE] | Not Active | Not Active | Not Active | Not Active | Not Active | Not Active | Not Active | Not Active | Not Active | Not Active |  |  |  |  | 
O=C(OC[C@H]1O[C@@H](OC(=O)c2cc(O)c(O)c(OC(=O)c3cc(O)c(O)c(O)c3)c2)[C@H](OC(=O)c2cc(O)c(O)c(OC(=O)c3cc(O)c(O)c(O)c3)c2)[C@@H](OC(=O)c2cc(O)c(O)c(OC(=O)c3cc(O)c(O)c(O)c3)c2)[C@@H]1OC(=O)c1cc(O)c(O)c(OC(=O)c2cc(O)c(O)c(O)c2)c1)c1cc(O)c(O)c(OC(=O)c2cc(O)c(O)c(O)c2)c1 [TANNIC ACID] | Not Active | Not Active | Not Active | Not Active | Not Active |  |  |  |  |  | 0.714 | 1.04 | 4.7 |  | 
CN1C(=O)OC(C)(C)C1=O [TRIMETHADIONE] | Not Active | Not Active | Not Active | Not Active | Not Active | Not Active | Not Active | Not Active | Not Active | Not Active |  |  |  |  | 
Cc1cn([C@H]2C=C[C@@H](CO)O2)c(=O)[nH]c1=O [STAVUDINE] | Not Active | Not Active | Not Active | Not Active | Not Active | Not Active | Not Active | Not Active | Not Active | Not Active |  |  |  |  | 
CN1C[C@H](CNC(=O)OCc2ccccc2)C[C@@H]2c3cccc4c3c(cn4C)C[C@H]21 [METERGOLINE] | Not Active | Not Active | Not Active | Not Active | Not Active | Not Active | Not Active | Not Active | Not Active | Not Active |  |  |  |  | 
CCN(CC)C(=S)SSC(=S)N(CC)CC | Not Active | Not Active |  |  | Not Active | Not Active | Not Active |  |  | Not Active |  | 4.8 |  | 29.9 | 7.58
Cc1cc2c(s1)Nc1ccccc1N=C2N1CCN(C)CC1 [OLANZAPINE] | Not Active | Not Active |  |  | Not Active |  |  |  |  | Not Active |  |  |  |  | 
CC(C)(C)NC[C@H](O)COc1cccc2c1CCCC2=O [LEVOBUNOLOL] | Not Active | Not Active | Not Active | Not Active | Not Active | Not Active | Not Active | Not Active | Not Active | Not Active |  |  |  |  | 
Nc1nc(N)c2nc(-c3ccccc3)c(N)nc2n1 | Not Active | Not Active | Not Active | Not Active | Not Active | Not Active | Not Active | Not Active | Not Active | Not Active |  |  |  |  | 
CN(C)CCC=C1c2ccccc2COc2ccccc21 [DOXEPIN] | Not Active | Not Active |  |  | Not Active |  |  |  |  | Not Active |  |  |  |  | 
CNCCCC12CCC(c3ccccc31)c1ccccc12 [MAPROTILINE] | Not Active | Not Active |  |  | Not Active |  |  |  |  | Not Active |  |  |  |  | 
